Data published in publication PMC10797628.
Changes are numbered by the printed parent chain. Read-outs that look alike come from different tables or passages of the source.

Legend:
[1] = target: T1, human 5-HT1F receptor (Homo sapiens, UniProt P30939); experiment: Radioligand binding (saturation and competition), WT 5-HT1F
T1 construct: host or cells: HEK293T
T1 sequence (P30939 1-366): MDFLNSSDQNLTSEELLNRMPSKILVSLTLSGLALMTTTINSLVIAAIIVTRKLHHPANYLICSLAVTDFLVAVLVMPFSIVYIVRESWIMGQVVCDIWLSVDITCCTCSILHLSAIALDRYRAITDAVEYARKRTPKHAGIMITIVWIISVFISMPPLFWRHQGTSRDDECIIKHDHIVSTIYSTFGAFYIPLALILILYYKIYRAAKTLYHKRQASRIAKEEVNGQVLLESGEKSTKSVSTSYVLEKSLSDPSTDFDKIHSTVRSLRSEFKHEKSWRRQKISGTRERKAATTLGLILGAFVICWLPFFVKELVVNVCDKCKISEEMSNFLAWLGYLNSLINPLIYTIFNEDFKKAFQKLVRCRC

[2] = target: V45.52I 5-HT1B receptor (Homo sapiens, UniProt P28222, V201I); experiment: cAMP accumulation in HEK293T cells, V45.52I 5-HT1B; type: cell-based; parameters: mutated in house (Quikchange II) HTR01B0000; host or cells: HEK293T; conditions: point-mutated receptor, 3 independent experiments, read-out: pEC50 5-HT1B Receptor V45.52I (converted)
Experimental: (§1) Briefly, cells transfected with the desired receptor construct and compounds were incubated in the dark for 90 min at 37 °C. After incubation, cAMP detection reagents were added, and TR-FRET was used to quantify the cAMP produced.
(§2) The functional activity of compounds was determined by stimulating cells expressing the desired receptor with FSK and test compound in parallel with 12 known concentrations of cAMP. The known concentrations of cAMP were used to create a standard curve for each experiment that was used to interpolate the unknown values of cAMP in wells with test compounds. […] The EC50 and EMAX values were determined using the “dose response – log[agonist] vs response (three parameter)” nonlinear regression model in Prism and transformed to pEC50 values, reported as mean ± SD.
(§3) Cell Type Receptor Cell Density [Forskolin] Incubation time
(§4) Summary of functional assay conditions at various 5-HT1 receptor point mutation constructs.

[3] = target: S5.42A 5-HT1B receptor (Homo sapiens, UniProt P28222, S212A); experiment: cAMP accumulation in HEK293T cells, S5.42A 5-HT1B; type: cell-based; parameters: host or cells: HEK293T; conditions: point-mutated receptor, 3 independent experiments, read-out: pEC50 5-HT1B Receptor S5.42A (converted)
Experimental: as §1, §2, §3, §4

[4] = target: S5.42A 5-HT1D receptor (Homo sapiens, UniProt P28221, S201A); experiment: cAMP accumulation in HEK293T cells, S5.42A 5-HT1D; type: cell-based; parameters: host or cells: HEK293T; conditions: point-mutated receptor, 3 independent experiments, read-out: pEC50 5-HT1D Receptor S5.42A (converted)
Experimental: as §1, §2, §4

[5] = target: T2, human 5-HT1D receptor (Homo sapiens, UniProt P28221); experiment: Radioligand binding (saturation and competition), WT 5-HT1D; conditions: for higher affinity at 5-HT1D over 5-HT1A receptors: affinity ratio
T2 construct: host or cells: HEK293T

[6] = target: T3, V3.33I 5-HT1A receptor (Homo sapiens, UniProt P08908, V117I); experiment: Radioligand binding, V3.33I 5-HT1A
T3 sequence (P08908 1-422 V117I): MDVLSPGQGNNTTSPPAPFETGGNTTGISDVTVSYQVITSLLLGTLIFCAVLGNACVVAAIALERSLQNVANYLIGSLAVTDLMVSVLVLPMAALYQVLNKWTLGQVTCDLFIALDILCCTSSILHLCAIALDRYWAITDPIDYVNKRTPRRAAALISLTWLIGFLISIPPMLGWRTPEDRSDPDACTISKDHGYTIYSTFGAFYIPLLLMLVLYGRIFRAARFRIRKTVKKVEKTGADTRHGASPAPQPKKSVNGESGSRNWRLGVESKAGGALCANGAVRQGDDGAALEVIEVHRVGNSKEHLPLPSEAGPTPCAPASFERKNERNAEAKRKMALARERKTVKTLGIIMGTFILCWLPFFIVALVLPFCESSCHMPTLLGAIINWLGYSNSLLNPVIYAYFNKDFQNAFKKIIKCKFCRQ
Experimental: (§5) 48 hours after transfection with the desired receptor construct, cells were isolated for saturation and competition binding assays as previously described.[47],[48],[57] Saturation and competition radioligand binding assays were conducted in an assay buffer consisting of 50 mM Tris HCl, 10 mM MgCl2, and 0.1 mM EDTA in filtered deionized water. […] Briefly, 5–10 μg of the receptor protein, as determined by a Thermo Fisher Pierce BCA protein assay kit, was incubated with 8 concentrations of radioligand in triplicate to determine total binding. […] Nonspecific binding was determined as above for saturation assays.
(§6) For radioligand binding data, nonspecific binding was subtracted from the total binding to get specific binding. Saturation binding data was fit to the “binding saturation-specific binding with hill slope” model. Competition binding data were fit to the “binding competition-one-site fit Ki” non-linear regression model and transformed to pKi values, reported as mean ± SD.
(§7) is 50 mM Tris HCl, 10 mM MgCl2 and 0.1 mM EDTA in filtered deionized water.

[7] = target: T4, Y5.38A 5-HT1A receptor (Homo sapiens, UniProt P08908, Y195A); experiment: Radioligand binding, Y5.38A 5-HT1A
T4 sequence (P08908 1-422 Y195A): T3 sequence (P08908 1-422 V117I) with I117V, Y195A
Experimental: as §5, §6, §7

[8] = target: T5, S5.42A 5-HT1A receptor (Homo sapiens, UniProt P08908, S199A); experiment: Radioligand binding, S5.42A 5-HT1A
T5 sequence (P08908 1-422 S199A): T3 sequence (P08908 1-422 V117I) with I117V, S199A
Experimental: as §5, §6, §7

[9] = Affinity (pKi ± SD) 5-HT1D, WT receptor, [^3H]5-CT competition, mean ± SD

Sequence of S5.42A 5-HT1B receptor (P28222 whole entry S212A): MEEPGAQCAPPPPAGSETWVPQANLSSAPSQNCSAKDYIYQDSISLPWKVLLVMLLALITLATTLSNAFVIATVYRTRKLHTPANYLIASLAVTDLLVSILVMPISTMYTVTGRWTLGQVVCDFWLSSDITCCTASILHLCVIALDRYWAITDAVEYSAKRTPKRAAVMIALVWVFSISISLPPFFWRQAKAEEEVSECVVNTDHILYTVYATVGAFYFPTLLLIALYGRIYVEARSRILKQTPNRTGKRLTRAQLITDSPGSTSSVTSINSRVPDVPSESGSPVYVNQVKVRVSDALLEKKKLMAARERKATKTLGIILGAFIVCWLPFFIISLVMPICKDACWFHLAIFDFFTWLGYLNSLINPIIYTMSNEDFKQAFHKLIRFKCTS
T2 sequence (P28221 whole entry): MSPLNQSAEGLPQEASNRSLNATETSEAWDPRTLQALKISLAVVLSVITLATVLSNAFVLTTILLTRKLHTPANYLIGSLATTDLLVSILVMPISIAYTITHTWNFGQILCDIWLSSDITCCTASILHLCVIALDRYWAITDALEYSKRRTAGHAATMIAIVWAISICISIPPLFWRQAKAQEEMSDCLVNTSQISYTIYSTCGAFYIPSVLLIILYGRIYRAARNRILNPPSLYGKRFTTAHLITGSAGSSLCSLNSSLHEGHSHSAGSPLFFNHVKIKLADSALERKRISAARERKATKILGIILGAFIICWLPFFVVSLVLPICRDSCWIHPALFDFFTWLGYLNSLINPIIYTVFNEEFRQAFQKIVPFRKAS
Sequence of V45.52I 5-HT1B receptor (P28222 whole entry V201I): as the sequence (P28222 whole entry S212A) above, with V201I, A212S counted along it
Sequence of S5.42A 5-HT1D receptor (P28221 whole entry S201A): as the sequence (P28221 whole entry) above, with S201A counted along it

| Structure (SMILES) | Ki [1] [nM] | EC50 [2] [nM] | EC50 [3] [nM] | EC50 [4] [nM] | Ki [5, 9] [nM] | higher affinity at 5-HT1D over 5-HT1A receptors [5] [fold] | Ki [6] [nM] | Ki [7] [nM] | Ki [8] [nM] | Ki ([1]; WT receptor, [^3H]5-HT competition, mean ± SD, read-out: Affinity (pKi ± SD) 5-HT1F (converted)) [nM] | Ki ([5]; read-out: Affinity (pKi ± SD) 5-HT1D (converted)) [nM] |
| --- | --- | --- | --- | --- | --- | --- | --- | --- | --- | --- | --- |
| CN(C)[C@H]1CCc2c(cccc2-c2ccccc2F)C1 [(S)-FPT] | > 10000 | 0.776 | 1.02 | 1.35 | 1.07 | 4 |  |  |  |  |  |
| CN(C)[C@H]1CCc2c(cccc2-c2cccc3ccccc23)C1 [(S)-NAP] | 5370 | 224 | 35.5 | 10 | 0.832 | 70 | 63.1 | 245 | 63.1 |  |  |
| Fc1ccccc1-c1cccc2c1CC[C@H](N1CCCC1)C2 [(S)-PFPT] |  | 51.3 | 316 | 309 |  |  | 8.13 | 0.955 | 1.48 | > 10000 | 13.5 |
